In patent publication US20070232609A1, “Novel Antiparasitic Combination of Active Compounds” (BAYER HEALTHCARE AG, priority 2004, published 2007):

Tested on: Eimeria acervulina, E. maxima, E. tenella
Experiment: Cage experiment on coccidiosis/chicks
Format: in vivo
Conditions: for Mortality %: day -3 to 8 (9) p.i.; for % efficacy (total score): 0% no action, 100% full action; for Dropping score / Lesion score: assessment 0 to 6
Protocol: The efficacy of the compounds according to the invention can be confirmed, for example, in cage experiments with the following experimental arrangement, in which the animals are treated with the respective individual components and with the mixtures of the individual components.
An active compound-containing feed is prepared such that the required amount of active compound is basically mixed with a nutritionally balanced animal feed, e.g. with the chick feed indicated below.
Cage Experiment on Coccidiosis/Chicks
8- to 12-day-old male chicks (e.g. LSL Brinkschulte/Senden) which have been reared coccidia-free receive the compounds according to the invention (test substances) in the concentration indicated in ppm with the feed from 3 days before (day −3) infection (=a.i.) until 8 (9) days after infection (=p.i.). 3 animals are kept in each cage. One or more groups of this type are employed per dose. Infection is carried out by means of a stomach tube directly into the crop with approximately 100 000 sporulated oocysts of Eimeria acervulina and with approximately 30 000 oocysts each of E. maxima and 40 000 sporulated oocysts of E. tenella. These are highly virulent strains. The exact infection dose is adjusted so that, if possible, one of three experimentally infected untreated chicks dies due to the infection. For assessment of the efficacy, the following criteria are taken into account: weight increase from the start of the experiment to the end of the experiment, death rate due to infection, macroscopic assessment of the faeces with respect to diarrhea and excretion of blood on days 5 and 7 p.i. (assessment 0 to 6), macroscopic assessment of the intestinal mucosa, in particular of the appendices (assessment 0 to 6) and the oocyst excretion as well as the proportion (in %) of the oocysts sporulating in the course of 24 hours. The number of oocysts in the faeces was determined with the aid of a McMaster counting chamber (see Engelbrecht and coworkers “Parasitologische Arbeitsmethoden in Medizin und Veterinärmedizin” [Parasitological Working Methods in Medicine and Veterinary Medicine], Akademie-Verlag, Berlin (1965)). The individual findings are related to the untreated non-infected control groups and a total score is calculated (cf. A. Haberkorn (1986), pp. 263 to 270 in Research in Avian Coccidiosis ed. L. R. McDougald, L. P. Joyner, P. L. Long, Proceedings of the Georgia Coccidiosis Conference, Nov. 18-20, 1985, Athens/Georgia USA).
In the column “ppm”, the concentration of the active compound employed in the feed is indicated in ppm.
In the column “mortality”, the percentage of the dead animals is indicated under % and the number of dead animals/animals employed in the experiment is indicated under n.
In the column “weight % of not inf. control”, the ratio of the weight of the treated animals to the weight of the non-infected control group is indicated.
In the columns “dropping scores”, “lesion score” and “oocyst control”, individual details of the action are given.
In the column “% efficacy”, the total score is assessed; 0% means no action, 100% means full action.

N#CC(c1ccc(Cl)cc1)c1c(Cl)cc(-n2ncc(=O)[nH]c2=O)cc1Cl (stereo not shown) [Diclazuril]
Mortality n (dead animals/animals employed) (0.05 ppm in feed): 0/3 | Oocysts in % of inf. control (0.05 ppm in feed): 17.0 % of inf. control | Weight in % of not inf. control (0.05 ppm in feed): 86 % of not inf. control | Mortality % (0.05 ppm in feed): 0% | % efficacy (total score) (0.05 ppm in feed): 69.3% | Dropping score (0.05 ppm in feed): 0 | Lesion score (0.05 ppm in feed): 0 | Mortality n (dead animals/animals employed) (0.1 ppm in feed): 0/3 | Oocysts in % of inf. control (0.1 ppm in feed): 14.0 % of inf. control | Weight in % of not inf. control (0.1 ppm in feed): 92 % of not inf. control | Mortality % (0.1 ppm in feed): 0% | % efficacy (total score) (0.1 ppm in feed): 77.0% | Dropping score (0.1 ppm in feed): 0-2 | Lesion score (0.1 ppm in feed): 0

FC(F)(F)c1nc2c(Cl)cc3c(c2[nH]1)OC(F)(F)C(F)(F)O3 [(I-A)*]
Mortality n (dead animals/animals employed) (1 ppm in feed): 0/3 | Oocysts in % of inf. control (1 ppm in feed): 36.0 % of inf. control | Weight in % of not inf. control (1 ppm in feed): 16 % of not inf. control | Mortality % (1 ppm in feed): 0% | % efficacy (total score) (1 ppm in feed): 15.7% | Dropping score (1 ppm in feed): 6 | Lesion score (1 ppm in feed): 6 | Mortality n (dead animals/animals employed) (2.5 ppm in feed): 0/3 | Oocysts in % of inf. control (2.5 ppm in feed): 80.7 % of inf. control | Weight in % of not inf. control (2.5 ppm in feed): 41 % of not inf. control | Mortality % (2.5 ppm in feed): 0% | % efficacy (total score) (2.5 ppm in feed): 12.3% | Dropping score (2.5 ppm in feed): 6 | Lesion score (2.5 ppm in feed): 6
